This is an account of results in ChEMBL document CHEMBL1157697, “Novel ester and acid derivatives of the 1,5-diarylpyrrole scaffold as anti-inflammatory and analgesic agents. Synthesis and in vitro and in vivo biological evaluation” (J Med Chem, 2010).

Series [1] relates to Rattus norvegicus. Briefly: Antiinflammatory activity against carrageenan-induced paw edema rat inflammatory model assessed as paw pressure at 10 mg/kg, po after 120 mins. It is filed as functional.
For series [2], the species on record is Rattus norvegicus. Briefly: Analgesic activity against zymosan-induced hyperalgesia in rat assessed maximum effect measured up to 2 hrs.
Series [3] is described as follows: Oral bioavailability in Sprague-Dawley rat at 10 mg/kg. The format is ADME, organism-based. The note with it: in vivo.
Series [4] is filed under the species Mus musculus. Kind of series: Toxicity in Swiss mouse assessed as number of falls in 30 seconds after 60 mins by rotarod test. The format is organism-based. The note with it: in vivo, 1 h. A general note: The rotarod test checks motor coordination on a turning rod.
Series [5] deals with T1, Prostaglandin G/H synthase 1 (Mus musculus, UniProt P22437).
T1 sequence (P22437 whole entry): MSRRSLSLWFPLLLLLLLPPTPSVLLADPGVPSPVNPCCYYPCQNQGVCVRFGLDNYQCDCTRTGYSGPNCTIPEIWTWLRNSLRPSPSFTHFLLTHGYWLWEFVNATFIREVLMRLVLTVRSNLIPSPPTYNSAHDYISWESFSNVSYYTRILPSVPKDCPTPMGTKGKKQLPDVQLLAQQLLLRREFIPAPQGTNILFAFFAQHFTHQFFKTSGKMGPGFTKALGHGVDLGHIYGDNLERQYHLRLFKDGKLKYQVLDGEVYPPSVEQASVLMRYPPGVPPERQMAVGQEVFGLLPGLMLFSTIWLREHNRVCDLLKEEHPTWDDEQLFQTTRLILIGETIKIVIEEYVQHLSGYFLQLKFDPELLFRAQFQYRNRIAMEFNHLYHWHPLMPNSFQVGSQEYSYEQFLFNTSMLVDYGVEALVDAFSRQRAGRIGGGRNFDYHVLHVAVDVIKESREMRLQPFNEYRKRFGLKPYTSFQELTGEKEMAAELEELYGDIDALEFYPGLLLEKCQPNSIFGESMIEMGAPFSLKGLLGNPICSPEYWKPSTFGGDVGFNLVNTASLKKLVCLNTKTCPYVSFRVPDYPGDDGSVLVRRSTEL
Description: Inhibition of COX1-dependent PGE2 production in LPS-stimulated mouse J774 cells by RIA

Series [6] in a line: Clearance in Sprague-Dawley rat at 10 mg/kg, iv. The format is ADME, organism-based. The arrangement: dose 10 mg/kg, route intravenous. The note with it: in vivo.
Series [7] is filed under the species Mus musculus. Kind of series: Toxicity in Swiss mouse assessed as number of falls in 30 seconds after 30 mins by rotarod test. It is filed as organism-based. The note with it: in vivo, 0.5 h.
In series [8] the test system is Rattus norvegicus. Kind of series: Antiinflammatory activity against carrageenan-induced paw edema rat inflammatory model assessed as paw pressure at 10 mg/kg, po after 30 mins. The format is functional. (The carrageenan paw model is a standard test of acute inflammation.)
Series [9] has as its target Prostaglandin G/H synthase 1 (Homo sapiens, UniProt P23219). Briefly: Inhibition of COX1 in human whole blood assessed as thromboxane B2 production by RIA. The format is tissue-based.
In series [10] the test system is Rattus norvegicus. Briefly: Rate of blood flow in Sprague-Dawley rat at 10 mg/kg, iv. The format is ADME, organism-based. Also on record: dose 10 mg/kg, route intravenous. The note with it: in vivo.
In series [11] the target is T2, Prostaglandin G/H synthase 2 (Mus musculus, UniProt Q05769).
T2 sequence (Q05769 whole entry): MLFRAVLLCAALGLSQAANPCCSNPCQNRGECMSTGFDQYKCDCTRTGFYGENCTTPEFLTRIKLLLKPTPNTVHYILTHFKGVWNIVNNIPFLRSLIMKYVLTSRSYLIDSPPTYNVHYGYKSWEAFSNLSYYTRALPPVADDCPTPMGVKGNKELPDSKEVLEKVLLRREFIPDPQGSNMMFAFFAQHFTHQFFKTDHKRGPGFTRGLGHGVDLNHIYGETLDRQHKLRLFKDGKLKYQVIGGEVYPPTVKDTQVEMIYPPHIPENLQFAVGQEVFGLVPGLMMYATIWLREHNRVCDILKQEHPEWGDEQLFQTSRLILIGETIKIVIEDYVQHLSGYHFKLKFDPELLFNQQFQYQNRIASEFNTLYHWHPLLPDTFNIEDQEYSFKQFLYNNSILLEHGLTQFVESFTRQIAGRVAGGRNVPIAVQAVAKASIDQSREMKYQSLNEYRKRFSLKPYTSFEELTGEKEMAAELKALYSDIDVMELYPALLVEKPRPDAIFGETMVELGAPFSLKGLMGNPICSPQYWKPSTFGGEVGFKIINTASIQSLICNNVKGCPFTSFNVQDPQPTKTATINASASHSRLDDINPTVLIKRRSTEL
Description: Inhibition of COX2-dependent PGE2 production in LPS-stimulated mouse J774 cells by RIA

For series [12], the species on record is Rattus norvegicus. Briefly: Analgesic activity against zymosan-induced hyperalgesia in rat assessed maximum effect measured up to 6 hrs.
Series [13] in a line: Metabolic stability in human liver microsomes at 0.1 uM. It is filed as ADME, Microsome. The note with it: read-out: Stability. On the technique in general: Microsomes from liver hold many membrane-bound enzymes, among them those of drug oxidation.
Series [14] is described as follows: Metabolic stability in human liver microsomes at 10 uM. It is filed as ADME, Microsome. The note with it: read-out: Stability.
Series [15] has as its target T3, Prostaglandin G/H synthase 2 (Homo sapiens, UniProt P35354).
T3 sequence (P35354 whole entry): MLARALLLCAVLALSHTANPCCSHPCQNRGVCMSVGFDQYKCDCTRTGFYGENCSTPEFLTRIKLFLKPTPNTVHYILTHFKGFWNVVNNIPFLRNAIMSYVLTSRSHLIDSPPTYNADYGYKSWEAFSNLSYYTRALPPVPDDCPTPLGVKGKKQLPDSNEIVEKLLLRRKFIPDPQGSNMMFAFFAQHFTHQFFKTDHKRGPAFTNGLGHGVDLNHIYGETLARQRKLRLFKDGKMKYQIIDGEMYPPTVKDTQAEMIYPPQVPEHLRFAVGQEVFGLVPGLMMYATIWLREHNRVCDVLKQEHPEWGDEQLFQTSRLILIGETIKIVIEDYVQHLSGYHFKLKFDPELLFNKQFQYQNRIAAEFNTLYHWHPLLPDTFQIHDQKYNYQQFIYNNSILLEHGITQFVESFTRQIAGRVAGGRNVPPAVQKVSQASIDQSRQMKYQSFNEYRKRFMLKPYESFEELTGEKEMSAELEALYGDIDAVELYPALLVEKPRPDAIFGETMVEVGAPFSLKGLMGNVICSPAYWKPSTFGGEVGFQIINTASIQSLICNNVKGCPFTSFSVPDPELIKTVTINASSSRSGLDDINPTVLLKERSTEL
Kind of series: Inhibition of COX2 in human whole blood assessed as inhibition of LPS-induced PGE2 production by RIA. It is filed as tissue-based.

Series [16] deals with Rattus norvegicus. Briefly: Antiinflammatory activity against carrageenan-induced paw edema rat inflammatory model assessed as suppression of paw edema at 10 mg/kg, po after 60 mins. It is filed as functional.
Series [17] in a line: Volume of distribution in Sprague-Dawley rat at 10 mg/kg, iv. It is filed as ADME, organism-based. Also on record: dose 10 mg/kg, route intravenous. The note with it: in vivo.
For series [18], the species on record is Mus musculus. Kind of series: Toxicity in Swiss mouse assessed as number of falls in 30 seconds after 45 mins by rotarod test. The format is organism-based. The note with it: in vivo, 0.75 h.
In series [19] the test system is Rattus norvegicus. Briefly: Antiinflammatory activity against carrageenan-induced paw edema rat inflammatory model assessed as paw volume at 10 mg/kg, po after 60 mins. The format is functional.
In series [20] the test system is Rattus norvegicus. Briefly: Antiinflammatory activity against carrageenan-induced paw edema rat inflammatory model assessed as paw pressure at 10 mg/kg, po after 60 mins. It is filed as functional.
The subject of series [21] is Mus musculus. Kind of series: Analgesic activity against acetic acid-induced po dosed mouse abdominal constriction assessed as writhing. The note with it: Abdomen.
For series [22], the species on record is Mus musculus. Briefly: Toxicity in Swiss mouse assessed as number of falls in 30 seconds after 15 mins by rotarod test. The note with it: in vivo, 0.25 h. The format is organism-based.
In series [23] the test system is Rattus norvegicus. Kind of series: Antiinflammatory activity against carrageenan-induced paw edema rat inflammatory model assessed as paw pressure at 20 mg/kg, po after 30 mins. The format is functional.
The test system of series [24] is Rattus norvegicus. Kind of series: Antiinflammatory activity against carrageenan-induced paw edema rat inflammatory model assessed as suppression of paw edema at 20 mg/kg, po after 60 mins. It is filed as functional.
Series [25] has as its system Rattus norvegicus. Briefly: Antiinflammatory activity against carrageenan-induced paw edema rat inflammatory model assessed as paw volume at 10 mg/kg, po after 60 mins.
Series [26] concerns Rattus norvegicus. Briefly: Antiinflammatory activity against carrageenan-induced paw edema rat inflammatory model assessed as paw pressure at 20 mg/kg, po after 120 mins. It is filed as functional.
Series [27] deals with Rattus norvegicus. Kind of series: Antiinflammatory activity against carrageenan-induced paw edema rat inflammatory model assessed as paw pressure at 20 mg/kg, po after 60 mins. The format is functional.

Sequence of Prostaglandin G/H synthase 1 (Homo sapiens, UniProt P23219) (P23219 whole entry): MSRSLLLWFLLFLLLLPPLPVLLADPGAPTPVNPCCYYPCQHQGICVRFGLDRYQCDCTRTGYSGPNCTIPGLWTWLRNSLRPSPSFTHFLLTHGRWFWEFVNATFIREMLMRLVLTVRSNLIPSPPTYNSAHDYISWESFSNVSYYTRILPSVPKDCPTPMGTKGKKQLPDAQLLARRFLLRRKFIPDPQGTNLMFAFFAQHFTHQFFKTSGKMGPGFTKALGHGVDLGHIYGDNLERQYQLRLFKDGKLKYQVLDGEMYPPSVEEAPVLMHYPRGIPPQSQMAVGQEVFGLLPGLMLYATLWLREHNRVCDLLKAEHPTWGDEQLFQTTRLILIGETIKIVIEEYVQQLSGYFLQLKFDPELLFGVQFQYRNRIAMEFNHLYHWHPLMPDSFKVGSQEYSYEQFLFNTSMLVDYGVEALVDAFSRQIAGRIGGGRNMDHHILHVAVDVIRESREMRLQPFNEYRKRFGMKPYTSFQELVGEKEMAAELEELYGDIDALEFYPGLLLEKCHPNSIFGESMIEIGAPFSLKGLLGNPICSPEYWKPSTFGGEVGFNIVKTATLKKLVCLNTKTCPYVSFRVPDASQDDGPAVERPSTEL

For the molecule `Cc1c(CC(=O)OC(C)C)cc(-c2ccc(S(C)(=O)=O)cc2)n1-c1ccccc1`, the Activity with Rattus norvegicus [1] is on record as 48.8 g; in the series filed under Rattus norvegicus [2], 75%; in the series listed under Mus musculus [4] it was “Non-toxic”; in the series filed under Mus musculus [7], “Non-toxic”; in the series on Rattus norvegicus [8] it was 56.2 g; in the series filed under Rattus norvegicus [12] it was 70%. For the same molecule, the Activity in the series on Rattus norvegicus [16] was 100%; in the series listed under Mus musculus [18], “Non-toxic”; in the series with Rattus norvegicus [19], 1.26 mL; in the series with Rattus norvegicus [20] it was 51.8 g; in the series with Mus musculus [21], “Dose-dependent effect”; in the series listed under Mus musculus [22], “Non-toxic”. The bioavailability (in general, dose-corrected exposure relative to a reference, in per cent) in series [3] stood at 42%. The IC50 (in general, the concentration that inhibits the measured activity by half) in series [5] is greater than 100000 nM; in [9], 20000 nM; in series [11], 7.3 nM; in [15], 2500 nM. Further, the clearance – broadly, the rate of elimination divided by the concentration – in series [6] is 33.3 mL/min. For the same molecule, the LBF in the series on Rattus norvegicus [10] turned out to be 0.8 L/h. Moreover, the remaining at 0.1 µM in [13] turned out to be 11%. Moreover, the remaining at 10 µM in series [14] is 1%. The Vd (in general, a proportionality between amount in the body and measured concentration, not a real space) in series [17] was found to be 5.6 L.
With `Cc1ccc(-c2cc(C(F)(F)F)nn2-c2ccc(S(N)(=O)=O)cc2)cc1` [CELECOXIB], the Activity was 56.5 g in the series on Rattus norvegicus [23]; 95.5% in the series on Rattus norvegicus [24]; 1.33 mL with Rattus norvegicus [25]; 30% in the series filed under Rattus norvegicus [2]; 55.2 g with Rattus norvegicus [26]; 35% in the series filed under Rattus norvegicus [12]. Moreover, in the series with Rattus norvegicus [27], the Activity is 58.2 g.
